Key:
endometrial VSMCs = experiment: αSMA and PCNA double-immunostaining of endometrium of oophorectomized guinea pigs (OVX-GPs); type: in vivo, guinea pig; settings: 21-d time-release pellets, mean±SEM
Description: After receiving written informed consent at New York University under Institutional Review Board approval, paraffin sections were derived from banked paired endometrial tissues obtained before and after Depo therapy by […] biopsy from each reproductive age woman with regular menstrual cycles during the secretory phase (n=6). Based on an established animal model for LAPC-induced AUB in humans (9), nulliparous adult female pigmented GPs (weighing 525-775 g) were used in experimental procedures conforming to National Health and Medical Research Council Guidelines of Australia and approved by the Animal Ethics Committee of The University of Western Australia. GPs (n=24) were subjected to bilateral OVX and given subcutaneous 21-d time-release pellets (Innovative Research of America) containing MPA (50 mg/d; n=6) or 17β-Estradiol (E2) (0.1 mg/d; n=6), both MPA and E2 (n=6), or no pellets (n=6). On day 20 of exposure to the pellets, GPs were killed with pentobarbital and uterine tissues fixed in 10% formalin and processed for paraffin embedding. In vitro experiments used aortic VSMCs from premenopausal women (n=2) (Life Technologies). Paraffin sections (5 μm) from paired pre- vs. post-Depo treated human or GP endometria were deparaffinized, boiled in citrate buffer (pH: 6.0) and then incubated in methanol containing 3% H2O2. Following 10% normal horse serum blocking (Vector Labs), slides were incubated overnight at 4° C. with mouse anti-PCNA monoclonal antibody (EMD Millipore). After several rinses in Tris-buffered saline containing 0.1% tween-20 (TBS-T; pH 7.6) slides were then incubated with biotinylated anti-mouse IgG (Vector Labs) for 30 min, then with a streptavidin-peroxidase complex (Elite ABC kit; Vector Labs) for 30 min and with diaminobenzidine (DAB; Vector Labs) for 3 min. […] Slides were counterstained by Hematoxylin and evaluated by histological scoring (HSCORE), as described previously (34). (See details for HSCORE evaluation for αSMA immunoreactivity and PCNA quantitation in SI Materials and Methods). Staining intensity for α-SMA was semiquantitatively evaluated by Q:1 HSCORE (1). […] An HSCORE value was determined for each specimen by using the formula HSCORE=ΣPi (i+1), where Pi is the percentage of stained cells in each intensity category (i.e., i=1, 2, or 3). Quantitation of PCNA immunostaining was determined by counting the number of PCNA^+ (brown) and PCNA^- cell nuclei (blue) in VSMCs (αSMA immunostained cells) and obtaining the ratio of numbers of PCNA^+ cell nuclei to total αSMA^+ cells. For each slide, three different fields were evaluated microscopically at 200× magnification. Slides were evaluated at different times by two investigators blinded to tissue source, and the average HSCORE or percentage of cells with PCNA^+ nuclei to total αSMA^+ cells used.

VSMCs [1] = experiment: VSMC proliferation assay by BrdU incorporation; type: cell-based, human; settings: for BrdU incorporation: control 0.86±0.03
Procedure: VSMCs were grown in 96-well plates or 8-well chamber slides and incubated with 10^−7 M of MPA (Sigma-Aldrich) or ETO (Organon) or P4 (Sigma-Aldrich) or vehicle±rCCL2 (R&D Systems)±STAT1 inhibitor, 5′-methyl-thioadenosine (MTA; EMD Millipore) (19) for 48 or 72 h. VSMCs were then analyzed for apoptosis by an ELISA based apoptosis kit (Roche) or cleaved-caspase 3 immunostaining. VSMC proliferation was measured by BrdU incorporation Kit (Cell Signaling). (See further details in SI Materials and Methods).
VSMCs were thawed and cultured in T-75 cell culture flasks in medium 231 (M231; Life Technologies) with smooth muscle growth supplement (5% FBS; 2 ng/mL human basic fibroblast growth factor, 0.5 ng/mL human epidermal growth factor, 5 ng/mL heparin, 0.2 μg/mL insulin and 5 μg/mL BSA; Life Technologies) with 100 U/mL penicillin, 100 μg/mL streptomycin, and 0.25 μg/mL fungizone. Confluent VSMCs were washed twice with 1×PBS to remove residual serum, and then passaged (5,000 cells per well) in 96-well plates and incubated in parallel in M231 with 1% charcoal striped FBS with 0.1% ethanol (vehicle, control), 10^−7 M MPA (Sigma-Aldrich), 10^−7 M ETO (Organon), or 10^−7 M P4 (Sigma-Aldrich)±rCCL2 (monocyte chemotactic protein-1; R&D Systems)±STAT1 inhibitor, 5′-methyl-thioadenosine (MTA; EMD Millipore) for 48 or 72 h.
BrdU (Cell Signaling) 1× in 100-μL M231 was added to each well during the final 24 h of incubation. At the end of 48- or 72-h incubation period, medium was removed and the wells washed twice with ice-cold PBS. VSMC proliferation was measured using BrdU cell proliferation Kit (Cell Signaling) at room temperature. Cells was incubated in 100 μL per well of the fixing/denaturing solution for 30 min, and then replaced by 100 μL per well BrdU detection antibody solution for 1 h. Following three rinses with wash buffer, plates were incubated in HRP-conjugated secondary antibody (100 μL per well) for 30 min. After three additional rinses with wash buffer, tetramethylbenzidine substrate solution (100 μL per well) was added for 20 min and the reaction stopped by adding 100 μL per well STOP solution. Absorbance was measured at 450 nm using Spectra Max190 microplate reader (Molecular Devices) to detect BrdU incorporation in each well.

VSMCs [2] = experiment: Transwell insert migration assay; type: cell-based, human; settings: coincubation with 10 ng/mL rCCL2, 12 h
Procedure: VSMCs (75,000 cells/200 μL) were suspended in M231 containing 1% charcoal striped FBS and either 0.1% ethanol (vehicle control) or the corresponding steroids and seeded onto insert wells (transwell filter with 12-μm pores; EMD Millipore). The inserts were then placed in 24-well plates containing 500 μL M231 with 1% charcoal striped FBS. After 12 h, cells remaining on the upper surface of the filter were removed with a cotton swab. Migrated cells were trypsinized, centrifuged, and resuspended in 200 μL of M231 medium. The cell suspensions were mixed with 200 μL 10% ethanol containing 0.4% Trypan blue dye and the live cell number was counted by Countess Automated Cell Counter (Invitrogen). See further details in SI Materials and Methods.
Cultured VSMCs were grown in T-75 cell culture flasks in M231 (Life Technologies) with smooth muscle growth supplement (Life Technologies) with 100 U/mL penicillin, 100 μg/mL streptomycin, 0.25 μg/mL fungizone. Confluent VSMCs were washed twice with 1×PBS to remove residual serum, and then trypsinized, resuspended (75,000 cells per 200 μL per well) in M231 with 1% charcoal striped FBS with 0.1% ethanol (vehicle, control), 10^−7 M MPA (Sigma-Aldrich), 10^−7 M ETO (Organon), or 10^−7 M P4 (Sigma-Aldrich)±rCCL2 (R&D Systems) and seeded on insert wells (transwell filter with 12-μm pores; EMD Millipore), which were then placed in 24-well plates containing 500 μL M231 with 1% charcoal striped FBS. After 12 h, cells remaining on the upper surface of the filter were removed with a cotton swab. Migrated cells attached to the lower surface of each insert or to the surface of lower wells were collected by trypsinization, followed by centrifugation and resuspension in 200 μL of M231 medium. The cell suspensions were mixed with 200 μL 10% ethanol containing 0.4% Trypan blue dye (selectively stains only dead cells blue, whereas live cells with intact cell membranes remain unstained) for 5 min. A mixture of 100 μL M231 and 100 μL 10% ethanol containing 0.4% Trypan blue dye was used as a negative control. To detect live cell numbers, 10 μL of final cell/Trypan blue dye suspension from each treatment condition was pipetted into Countess Cell Counting Chamber Slide and counted by using Countess Automated Cell Counter (Invitrogen). The counting procedure was performed in duplicate.

C[C@]12CC[C@@H]3c4ccc(O)cc4CC[C@H]3[C@@H]1CC[C@@H]2O [E2, 17β-Estradiol]
PCNA+ endometrial VSMCs (endometrial VSMCs; n=6, control 11.2%±2.3): 36.8%±2.7 | αSMA HSCORE (endometrial VSMCs; n=6, control 135.2±26.0): 212.7±14.6

rCCL2: recombinant chemokine (C-C motif) ligand 2 (monocyte chemotactic protein-1; R&D Systems)
effect on inhibition of BrdU incorporation by ETO (VSMCs [1]; 10 ng/mL rCCL2 added to 10^−7 M ETO): reversed | effect on inhibition of BrdU incorporation by MPA (VSMCs [1]; 10 ng/mL rCCL2 added to 10^−7 M MPA): reversed | BrdU incorporation (VSMCs [1]; rCCL2 1 ng/mL): 1.05±0.05 | BrdU incorporation (VSMCs [1]; rCCL2 10 ng/mL): 1.21±0.05 | effect on inhibition of VSMC migration by ETO (VSMCs [2]): did not reverse | effect on inhibition of VSMC migration by MPA (VSMCs [2]): partially reversed | effect on inhibition of VSMC migration by P4 (VSMCs [2]): did not reverse

5′-methyl-thioadenosine [MTA]
effect on rCCL2 reversal of progestin-inhibited BrdU incorporation (VSMCs [1]; 100 μm MTA with 10 ng/mL rCCL2 and MPA or ETO): abolished

— patent US20180078615A1, “USE OF CCL2 TO INHIBIT ABNORMAL UTERINE BLEEDING” (UNIVERSITY OF SOUTH FLORIDA, priority 2015, published 2018)
